The results in this text go back to US7741346B2, “Angiogenesis inhibitor” (Santen Pharmaceutical Co., Ltd., priority 2001, dated 2010).

Data set [1] has as its system normal human umbilical vein endotherial cells (HUVEC). The data set can be described thus: VEGF-induced HUVEC proliferation (in vitro angiogenesis inhibition test). Format: cell-based. Particulars: Homo sapiens, HUVEC, 72 h, 10 μM test compound, 10 ng/ml VEGF, three days after adding VEGF, WST-8 absorbance at 450 nm; read-out: Inhibitory rate (%) (cell growth inhibitory rate to the control). The protocol: (1) Angiogenesis Inhibition Tests Using Human Endothelial Cells
The effects of the present compounds on the in vitro angiogenesis were evaluated by using vascular endothelial growth factor (VEGF)-induced normal human umbilical vein endotherial cells (HUVEC) proliferation system (Cancer Res., 59, 99-106 (1999)), wherein inhibitory effects of drugs on cell growth reactions induced by treating HUVEC with VEGF as an in vitro angiogenesis evaluation model.
The present compound was dissolved in DMSO and then diluted with a medium to prepare 40 μM test compound solution.
2×10^3 cells/well of HUVEC was seeded onto a type I collagen coated 96-well plate. After one day, 25 μl of the 40 μM test compound solution and a 0.8% DMSO solution as a control were added to each well (final concentration; 10 μM of the test compound and 0.2% of DMSO). One hour after adding the test compound, 25 μl of 40 ng/ml VEGF solution was added to each well(final concentration; 10 ng/ml of VEGF). Three days after adding VEGF, a WST-8 assay reagent (manufactured by Dojin Chemical Co., Ltd.) was added to each well in an amount of 10 μl, and absorbance at 450 nm was measured.
Calculating cell growth inhibitory rates (%) to the control, angiogenesis inhibitory rates of almost all of the test compounds were 80% or higher.

Broadly, the melting point is the temperature, or range, at which the solid turns liquid. With `O=C(NCCCc1ccncc1)N(CCC(F)(F)F)CCC12CC3CC(CC(C3)C1)C2` [Compound No. 1-24, 1-[2-(1-Adamantyl)ethyl]-3-[3-(4-pyridyl)propyl]-1-(3,3,3-trifluoropropyl)urea], the melting point was 107.5 to 109 °C. Moreover, in data set [1], the inhibition at 10 µM stood at 82.1%.

The compound `CC=CCN(CCC12CC3CC(CC(C3)C1)C2)C(=O)NCCCc1ccncc1` [Compound No. 1-25, 1-[2-(1-Adamantyl)ethyl]-1-(2-butenyl)-3-[3-(4-pyridyl)propyl]urea] came in with a melting point of 89.5 to 93.5 °C. The inhibition at 10 µM in data set [1] worked out at 83.2%.

The compound `CCCCCN(CCC12CC3CC(CC(C3)C1)C2)C(=O)NC(C)CCc1ccncc1` (stereo not drawn) [Compound No. 1-137, 1-[2-(1-Adamantyl)ethyl]-3-[1-methyl-3-(4-pyridyl)propyl]-1-pentylurea] yielded a melting point of 128.5 to 129 °C. Further, the inhibition at 10 µM in data set [1] turned out to be 83.3%.
